Assay results published in US11680298B2, “Method of identifying risk of cancer and therapeutic options” (Agency for Science, Technology and Research, priority 2016, dated 2023).
“Also recorded” adds a separate entry of the source.

Key:
[1] = Tolerability during treatment in the PDX mouse model; settings: in vivo
Description: Surgical procedures and experiments were conducted in compliance with animal protocols approved by the A*STAR-Biopolis Institutional Animal Care and Use Committee of Singapore (IACUC). 6-8 wk old female NOD/MrkBomTac-Prkdcscid mice were purchased from InVivos (Singapore). For PDX orthotopic xenotransplantation, tissue suspension was first prepared from whole tumour explant from mammary fat pad of immunodeficient mice. Whole tumours were washed in PBS, minced with sterile scalpel and triturated until cells could pass through needle bore. The PDX cell suspension was resuspended in reduced Matrigel (BD Bioscience, Cat No: 356230), and then 10 μl was injected into the mammary fat pad. Autoclips was used for primary wound closure. Mice were observed post-procedure for 1-2 hr, and their body weights and wound healing were monitored weekly. Tumours were measured by vernier caliper twice weekly and the tumour volume was calculated with the following formula: V=W×W×L/2.
For in vivo PDX model, each mouse bore one PDX tumour on one side of the mammary fat pad. After the tumours reach 100 mm^3, the mice were randomized into two groups: Vehicle treated control tumour (n=4) and paclitaxel treated tumour ([…]). […] Following the drug treatments, the tumours were monitored for approximately one month. […]

IRAK1 [2] = target: T1, IRAK1 (Homo sapiens, UniProt P51617); assay: Western blot of phospho-IRAK1 in breast cancer cells and patient-derived tumourspheres; assay type: cell-based; design: endogenous in cells; host or cells: MB468 and MB231 cells; PDX-derived tumourspheres
Description: Recombinant IL-1p (Cat no: 200-01B) was purchased from Peprotech (Rocky Hill, N.J.). Recombinant S100A7 (Cat no: pro-149), S100A8 (Cat no: pro-800) and S100A9 (Cat no: pro-814), were purchased from ProSpec (East Brunswick, N.J.). Cells were treated with recombinant proteins at stated concentration for 20 min before harvesting for western blot. Paclitaxel (Cat no: P-9600) was purchased from LC Lab (Woburn, Mass.).
(§1) All immunoblots shown in this specification represent at least two independent experiments. In brief, cells were washed with PBS and lysed in RIPA buffer supplemented with protease and phosphatase inhibitors and further sonicated using an XL2000 Microson Ultrasonice Processor (Misonix). Equal amounts of protein extract were separated on SDS-polyacrylamided gels and transferred to PVDF membranes. Membranes were further blocked with 5% milk or BSA, and then probed with the following antibodies: anti-IRAK1 was purchased from Santa Cruz Biotechnology (Santa Cruz, Calif.; sc-7883), anti-phospho-IRAK1 (T209) was purchased from Assay Biotech (Sunnyvale, Calif.; A1074), anti-JAK2 (Danvers, Mass.; #3230) and anti-phospho-JAK2 ([…]) (Danvers, Mass.: #3774) were purchased from Cell Signaling Technology, anti-actin was purchased from Sigma Aldrich CA; A5441). For protein extraction of xenograft tumours, snap frozen samples were resuspended in RIPA buffer supplemented with protease and phosphatase inhibitors and homogenized with QIAGEN TissueLyzer II as described by the manufacturer, followed by immunoblotting as described above.

HCC70 xenograft tumours = assay: In vivo pacritinib sensitivity test, HCC70 orthotopic xenograft; design: species or system NOD-SCID mice; settings: 1q21.3-amplified HCC70; 50, 100 and 150 mg/kg pacritinib daily by oral gavage for 21 days
JAK2 = target: T2, JAK2 (Homo sapiens, UniProt O60674); assay: Western blot of phospho-JAK2 in breast cancer cells and patient-derived tumourspheres; assay type: cell-based; settings: 6 hr pacritinib treatment, western blot
T2 construct: endogenous in cells; host or cells: MB468 and MB231 cells; PDX-derived tumourspheres
From the text: as §1

IRAK1 [3] = target: T1, IRAK1; settings: recently reported; cited from earlier work
HCC1937 = assay: Tumoursphere growth, HCC1937; assay type: cell-based; settings: HCC1937, negative for 1q21.3 amplification, high phospho-IRAK1 and phospho-JAK2
Description: For this purpose, the 1q21.3 gene amplification in a series of breast cancer cell lines was profiled using ddPCR (FIG. 6A). Of note, 1q21.3 status in these cell lines was in general correlated with phospho-IRAK1 and expression of S100A8/9 (FIG. 6B and FIG. 14A), but not with phospho-JAK2 status (FIG. 6B).
Mammosphere Formation Assay PDX-derived tumoursphere cells were trypsinized and passed through 40 μm cell strainer to achieve single cell suspensions. 3×10^4 cells were seeded in 6-well ultra-low attachment plates (Corning, N.Y.; CLS3471) in serum-free DMEM/F12 supplemented with N2 and B27 (Gibco, Grand Island, N.Y.), 20 ng/ml epidermal growth factor (MACS, Auburn, Calif.), 20 ng/ml basic fibroblast growth factor (MACS, Auburn, Calif.), 0.2 μM Thiazovivin ([…] Technologies, Vancouver, BC) and penicillin/streptomycin (Gibco, Carlsbad, Calif.). For breast cancer cell lines and MCF10A cell line, 3×10^4 cells were seeded in 6-well ultra-low attachment plates in Mammocult medium (Stem Cell Technologies, Vancouver, BC, Canada), supplemented with fresh hydrocortisone (0.5 μg/ml) and heparin (1:500). […] After 7-9 days, mammospheres were stained with INT (2-(4-iodophenyl)-3-(4-nitrophenyl)-5-phenyl-2H-tetrazolium chloride, Sigma-Aldrich) and quantified. Imaging and quantification were done using GelCount apparatus and associated software (Oxford Optronix, Abingdon, UK). […]

S100A7/8/9 = assay: Real-time PCR analysis of S100A7/8/9 gene expression in cells; assay type: cell-based, human
Description: Total RNA was isolated using TRIzol® reagent (Life Technologies, Carlsbad, Calif.; 15596026) and purified with Direct-zolTM RNA MiniPrep (Zymo Research, Irvine, Calif.; […]). Reverse transcription and quantitative PCR assays were performed using High-Capacity cDNA Reverse Transcription Kit (Applied Biosystems, Carlsbad, Calif.; 4368813) and KAPA SyBr Fast qPCR kit (KAPA Biosystems, Wilmington, Mass.; KK4601). For quantification of mRNA levels, GAPDH level was used as an internal control. All reactions were analysed in an Applied Biosystems PRISM 7500 Fast Real-Time PCR system in 96-well plate format. For RNA extraction of xenograft tumours, snap frozen samples were resuspended in TRIzol® reagent and homogenized with QIAGEN TissueLyzer II as described by the manufacturer, followed by purification with Direct-zolITM RNA MiniPrep.

T1 sequence (P51617 whole entry): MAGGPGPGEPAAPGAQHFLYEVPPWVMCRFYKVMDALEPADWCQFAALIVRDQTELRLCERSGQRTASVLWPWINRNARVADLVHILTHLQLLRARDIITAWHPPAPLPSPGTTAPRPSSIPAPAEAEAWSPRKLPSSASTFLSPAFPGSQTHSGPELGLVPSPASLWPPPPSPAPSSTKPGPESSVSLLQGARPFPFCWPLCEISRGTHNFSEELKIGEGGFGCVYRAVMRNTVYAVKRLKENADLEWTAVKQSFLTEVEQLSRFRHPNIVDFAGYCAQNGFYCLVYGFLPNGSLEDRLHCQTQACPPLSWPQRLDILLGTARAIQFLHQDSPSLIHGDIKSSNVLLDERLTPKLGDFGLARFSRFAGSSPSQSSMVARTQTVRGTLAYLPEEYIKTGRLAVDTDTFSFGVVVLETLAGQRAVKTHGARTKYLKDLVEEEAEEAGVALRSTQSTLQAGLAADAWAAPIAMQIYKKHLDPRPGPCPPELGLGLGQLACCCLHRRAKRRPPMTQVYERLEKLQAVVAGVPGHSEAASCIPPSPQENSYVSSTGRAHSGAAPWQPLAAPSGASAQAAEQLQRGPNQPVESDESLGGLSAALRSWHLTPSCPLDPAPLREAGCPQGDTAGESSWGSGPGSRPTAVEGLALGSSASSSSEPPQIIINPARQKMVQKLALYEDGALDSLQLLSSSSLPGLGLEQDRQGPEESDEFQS
T2 sequence (O60674 whole entry): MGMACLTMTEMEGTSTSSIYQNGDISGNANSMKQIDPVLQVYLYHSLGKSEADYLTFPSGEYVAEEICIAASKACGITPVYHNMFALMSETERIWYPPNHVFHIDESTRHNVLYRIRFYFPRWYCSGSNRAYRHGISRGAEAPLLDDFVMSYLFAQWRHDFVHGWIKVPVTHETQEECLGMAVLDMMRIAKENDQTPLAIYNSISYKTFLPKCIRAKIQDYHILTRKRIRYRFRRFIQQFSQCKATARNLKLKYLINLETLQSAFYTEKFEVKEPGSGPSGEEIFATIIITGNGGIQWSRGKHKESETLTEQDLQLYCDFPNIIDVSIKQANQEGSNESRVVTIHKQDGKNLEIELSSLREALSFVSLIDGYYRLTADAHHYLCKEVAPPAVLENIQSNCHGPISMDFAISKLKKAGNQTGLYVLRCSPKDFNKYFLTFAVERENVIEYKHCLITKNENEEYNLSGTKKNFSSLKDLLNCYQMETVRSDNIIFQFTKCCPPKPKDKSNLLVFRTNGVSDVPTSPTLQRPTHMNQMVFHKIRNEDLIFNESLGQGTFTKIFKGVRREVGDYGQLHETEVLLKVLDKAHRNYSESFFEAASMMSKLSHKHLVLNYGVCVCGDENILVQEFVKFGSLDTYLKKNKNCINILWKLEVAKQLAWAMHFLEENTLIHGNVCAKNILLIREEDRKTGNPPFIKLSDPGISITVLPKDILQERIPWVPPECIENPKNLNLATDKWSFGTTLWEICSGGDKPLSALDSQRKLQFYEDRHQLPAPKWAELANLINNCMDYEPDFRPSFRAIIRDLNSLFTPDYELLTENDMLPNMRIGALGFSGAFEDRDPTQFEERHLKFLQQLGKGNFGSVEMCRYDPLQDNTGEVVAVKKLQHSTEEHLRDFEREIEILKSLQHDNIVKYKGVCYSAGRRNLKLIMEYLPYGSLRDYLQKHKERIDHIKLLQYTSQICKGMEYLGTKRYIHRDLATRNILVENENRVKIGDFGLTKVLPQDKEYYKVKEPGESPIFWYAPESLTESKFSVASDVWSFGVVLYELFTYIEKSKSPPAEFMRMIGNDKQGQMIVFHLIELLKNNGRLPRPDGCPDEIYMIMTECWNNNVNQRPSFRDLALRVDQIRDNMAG

In the case of `C1=C/COCc2cc(ccc2OCCN2CCCC2)Nc2nccc(n2)-c2cccc(c2)COC/1` [pacritinib], the tolerability [1] is reported as “tolerated very well”, the “toxicity and body weight loss” value [1] is reported as “no obvious toxicity and body weight loss” and the “phosphorylation of IRAK1” value (IRAK1 [2]; MB468 cells, 6 hr pacritinib treatment, western blot) is reported as “inhibition of phospho-IRAK1 and phospho-JAK2 within 6 hr; also recorded: effectively block the phosphorylation of both IRAK1 and JAK2 as early as 6 hours in a dose-dependent manner”. For the same molecule, the phospho-IRAK1 (IRAK1 [2]; patient-derived (PDX-derived) tumoursphere cells, 24 hr, pacritinib 2.5 μM, with and without IL-1) was “prolonged inhibition of phospho-IRAK1; also recorded: sustained inhibition of phospho-IRAK1”, the tumour growth (HCC70 xenograft tumours) was “substantial inhibition in tumour growth” and the “phosphorylation of JAK2” value (JAK2; MB231 cells) was “inhibition of phospho-IRAK1 and phospho-JAK2 within 6 hr; also recorded: inhibited phosphorylation of JAK2”. For the same molecule, the “phosphorylation of JAK2” value (JAK2; MB468 cells) was “inhibition of phospho-IRAK1 and phospho-JAK2 within 6 hr; also recorded: effectively block the phosphorylation of both IRAK1 and JAK2 as early as 6 hours in a dose-dependent manner”, the IRAK1 inhibition (IRAK1 [3]) was “potent IRAK1 inhibitor” and the sensitivity to pacritinib (HCC1937) was “sensitive to pacritinib treatment”. The “expression of S100A7/8/9” value (S100A7/8/9; MB468 cells, 24 hr pacritinib treatment) was “reduced the expression of S100A7/8/9 in MB468 cells in a dose-dependent manner”, the S100A7 expression (S100A7/8/9; across the cell models tested) was “seemed to be cell specific” and the “expressions of S100A8 and S100A9” value (S100A7/8/9; across the cell models tested) was “consistently reduced”. For the same molecule, the “expression of S100A7/8/9” value (S100A7/8/9; patient-derived tumoursphere cells, 24 hr, pacritinib 2.5 μM) was “reduced expression of S100A7/8/9”.
